In EP2949653A1, “ISOXAZOLE DERIVATIVES AS LEUKOTRIENE BIOSYNTHESIS INHIBITORS” (Banoglu, Erden, priority 2014, dated 2015):

Molecular target: T1, 5-LO plus FLAP (Homo sapiens, UniProt P20292)
T1 construct: expressed in transfected cells; host or cells: HEK293 (stably transfected)
T1 sequence (P20292 1-161): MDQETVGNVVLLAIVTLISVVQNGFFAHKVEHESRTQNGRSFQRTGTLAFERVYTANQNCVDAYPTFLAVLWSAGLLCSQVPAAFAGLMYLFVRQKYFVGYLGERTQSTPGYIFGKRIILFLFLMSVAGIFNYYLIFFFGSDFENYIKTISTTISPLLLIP
Assay: 5-LO mediated product synthesis in HEK293 cells transfected with 5-LO plus FLAP
Format: cell-based
Conditions: 2.5 µM A23187 plus 3 µM AA (Figure 7)
Procedure: Compound 9hj inhibited 5-LO mediated product synthesis in HEK293 cells transfected with only 5-LO, with IC50 of 900 nM. […] After preincubation of cells with 9hj for 15 min at 37°C, cells were stimulated with 2.5 µM A23187 plus 3 µM AA for 10 min at 37°C. Data are expressed as percentage of vehicle control (0.1% DMSO). 100% controls correspond to 157.48 ng mL^-1 for 5-LO transfected cells and 155.15 ng mL^-1 for 5-LO plus FLAP transfected cells.

For `O=C(O)c1noc(-c2ccc(OCc3ccc4ccccc4n3)cc2)c1-c1ccc(Cl)cc1` [Compound 9hj, 4-(4-Chlorophenyl)-5-(4-(quinolin-2-ylmethoxy)phenyl)isoxazole-3-carboxylic acid], the IC50 was 310 nM.
